Experimental data from patent US11180504B2 (ORCHID PHARMA LTD., priority 2016, dated 2021).
In brackets after ≈: the same amount, converted by molar mass.

Columns and labels:
[1] = system: methicillin-sensitive Staphylococcus aureus; assay: MIC by broth micro-dilution (CLSI), methicillin-sensitive S. aureus; format: cell-based; conditions: Staphylococcus aureus, ATCC 29213 / MSSA, MSSA S. aureus ATCC29213; read-out: MIC
[2] = system: carbapenem sensitive Pseudomonas aeruginosa; assay: MIC by broth micro-dilution (CLSI), carbapenem sensitive P. aeruginosa; format: cell-based; conditions: Pseudomonas aeruginosa, ATCC27853, Meropenem susceptible P. aeruginosa ATCC27853; read-out: MIC
[3] = system: extended spectrum β lactamase (ESBL) SHV18 producing Klebsiella pneumoniae; assay: MIC by broth micro-dilution (CLSI), ESBL SHV18 producing K. pneumoniae; format: cell-based; conditions: Klebsiella pneumoniae, ATCC700603, 22 h, ESBL +ve (SHV-18) K. pneumoniae ATCC700603; read-out: MIC
[4] = system: carbapenem sensitive Escherichia coli; assay: MIC by broth micro-dilution (CLSI), carbapenem sensitive E. coli; format: cell-based; conditions: Escherichia coli, ATCC25922, ESBL −ve E. coli ATCC25922; read-out: MIC
[5] = system: carbapenemase producing K. pneumoniae; assay: MIC by broth micro-dilution (CLSI), carbapenemase producing K. pneumoniae; format: cell-based, Klebsiella pneumoniae; conditions: Klebsiella pneumoniae, ATCCBAA1705, KPC-2 K. pneumoniae ATCC BAA-1705; read-out: MIC

Row | SMILES | MIC [1] | MIC [2] | MIC [3] | MIC [4] | MIC [5]
1 | C[C@@H](NC(=O)C(F)F)[C@H]1C(=O)N2C(C(=O)O)=C(S[C@@H]3CN[C@H](C(=O)N4CC[C@H](NS(=O)(=O)CCN)C4)C3)[C@H](C)[C@H]12 [Example 133] | 4 mg/L (≈ 6.57 µM) | 8 mg/L (≈ 13.1 µM) | 4 mg/L (≈ 6.57 µM) | 1 mg/L (≈ 1.64 µM) | 8 mg/L (≈ 13.1 µM)
2 | C[C@@H](NC(=O)C(F)F)[C@H]1C(=O)N2C(C(=O)O)=C(S[C@@H]3CN[C@H](C(=O)N(C)[C@H]4CCNC4)C3)[C@H](C)[C@H]12 [Example 134] | 2 mg/L (≈ 3.88 µM) | 16 mg/L (≈ 31 µM) | 4 mg/L (≈ 7.76 µM) | 1 mg/L (≈ 1.94 µM) | 4 mg/L (≈ 7.76 µM)
3 | C[C@@H]1CN(C(=O)[C@@H]2C[C@H](SC3=C(C(=O)O)N4C(=O)[C@H]([C@@H](C)NC(=O)C(F)F)[C@H]4[C@H]3C)CN2)CCN1 [Example 135] | 2 mg/L (≈ 3.88 µM) | 8 mg/L (≈ 15.5 µM) | 4 mg/L (≈ 7.76 µM) | 1 mg/L (≈ 1.94 µM) | 4 mg/L (≈ 7.76 µM)
4 | C[C@@H](NS(=O)(=O)CCN)[C@H]1C(=O)N2C(C(=O)O)=C(S[C@@H]3CN[C@H](C(=O)N(C)C)C3)[C@H](C)[C@H]12 [Example 136] | > 128 mg/L | 32 mg/L (≈ 65.4 µM) | 16 mg/L (≈ 32.7 µM) | 4 mg/L (≈ 8.17 µM) | 16 mg/L (≈ 32.7 µM)
5 | COc1coc(CNC(=O)[C@@H]2C[C@H](SC3=C(C(=O)O)N4C(=O)[C@H]([C@@H](C)NC(=O)C(F)F)[C@H]4[C@H]3C)CN2)cc1=O [Example 137] | 4 mg/L (≈ 7.01 µM) | > 128 mg/L | 8 mg/L (≈ 14 µM) | 1 mg/L (≈ 1.75 µM) | 8 mg/L (≈ 14 µM)
6 | C[C@@H](NC(=O)C(F)(F)CN)[C@H]1C(=O)N2C(C(=O)O)=C(S[C@@H]3CN[C@H](C(=O)N(C)C)C3)[C@H](C)[C@H]12 [Example 138] | 32 mg/L (≈ 65.4 µM) | > 128 mg/L | 32 mg/L (≈ 65.4 µM) | 4 mg/L (≈ 8.17 µM) | 64 mg/L (≈ 131 µM)
7 | CCCNCC(=O)N[C@H](C)[C@H]1C(=O)N2C(C(=O)O)=C(S[C@@H]3CN[C@H](C(=O)N(C)C)C3)[C@H](C)C12 (stereo partly drawn) [Example 139] | 32 mg/L (≈ 66.4 µM) | 32 mg/L (≈ 66.4 µM) | 4 mg/L (≈ 8.31 µM) | 1 mg/L (≈ 2.08 µM) | 4 mg/L (≈ 8.31 µM)
8 | C[C@H]1C(S[C@@H]2CN[C@H](C(=O)N(CCO)CCO)C2)=C(C(=O)O)N2C(=O)[C@H]([C@@H](C)NC(=O)C(F)F)C12 (stereo partly drawn) [Example 140] | 2 mg/L (≈ 3.84 µM) | 32 mg/L (≈ 61.5 µM) | 1 mg/L (≈ 1.92 µM) | 0.5 mg/L (≈ 0.961 µM) | 2 mg/L (≈ 3.84 µM)
9 | CNC(=O)[C@@H]1C[C@H](N)CN1C(=O)[C@@H]1C[C@H](SC2=C(C(=O)O)N3C(=O)[C@H]([C@@H](C)NC(=O)C(F)F)[C@H]3[C@H]2C)CN1 [Example 141] | 4 to 8 mg/L (≈ 7.16 to 14.3 µM) | 64 mg/L (≈ 115 µM) | 4 to 8 mg/L (≈ 7.16 to 14.3 µM) | 1 mg/L (≈ 1.79 µM) | 4 to 8 mg/L (≈ 7.16 to 14.3 µM)
10 | C[C@@H](NC(=O)C(F)F)[C@H]1C(=O)N2C(C(=O)O)=C(S[C@@H]3CN[C@H](C(=O)N4C[C@@H](N)C[C@H]4C(=O)N(C)C)C3)[C@H](C)[C@H]12 [Example 142] | 4 to 8 mg/L (≈ 6.99 to 14 µM) | 16 to 32 mg/L (≈ 27.9 to 55.9 µM) | 8 mg/L (≈ 14 µM) | 1 mg/L (≈ 1.75 µM) | 8 mg/L (≈ 14 µM)
11 | C[C@@H](NC(=O)C(F)(F)CO)[C@H]1C(=O)N2C(C(=O)O)=C(S[C@@H]3CN[C@H](C(=O)N(C)C)C3)[C@H](C)[C@H]12 [Example 143] | 2 mg/L (≈ 4.08 µM) | 32 to 64 mg/L (≈ 65.2 to 130 µM) | 8 mg/L (≈ 16.3 µM) | 1 mg/L (≈ 2.04 µM) | 8 mg/L (≈ 16.3 µM)
12 | C[C@@H](NC(=O)C(F)F)[C@H]1C(=O)N2C(C(=O)O)=C(S[C@@H]3CN[C@H](CN4CCNCC4)C3)[C@H](C)[C@H]12 [Example 145] | 0.5 mg/L (≈ 1.03 µM) | 32 mg/L (≈ 65.6 µM) | 8 to 16 mg/L (≈ 16.4 to 32.8 µM) | 2 mg/L (≈ 4.1 µM) | 8 mg/L (≈ 16.4 µM)
13 | C[C@@H](NC(=O)C(F)F)[C@H]1C(=O)N2C(C(=O)O)=C(S[C@@H]3CN[C@H](C(=O)N4CC[C@H](NC(=O)C(F)(F)CN)C4)C3)[C@H](C)[C@H]12 [Example 147] | 2 mg/L (≈ 3.29 µM) | 64 to 128 mg/L (≈ 105 to 210 µM) | 2 mg/L (≈ 3.29 µM) | 1 mg/L (≈ 1.64 µM) | 4 to 8 mg/L (≈ 6.57 to 13.1 µM)
14 | C[C@@H](NC(=O)C(F)F)[C@H]1C(=O)N2C(C(=O)O)=C(S[C@@H]3CN[C@H](C(=O)N4CC[C@H](ON)C4)C3)[C@H](C)[C@H]12 [Example 148] | 1 to 2 mg/L (≈ 1.93 to 3.86 µM) | 32 to 64 mg/L (≈ 61.8 to 124 µM) | 1 mg/L (≈ 1.93 µM) | 0.5 mg/L (≈ 0.966 µM) | 2 to 4 mg/L (≈ 3.86 to 7.73 µM)
15 | CN[C@@H]1CCN(C(=O)[C@@H]2C[C@H](SC3=C(C(=O)O)N4C(=O)[C@H]([C@@H](C)NC(=O)C(F)F)[C@H]4[C@H]3C)CN2)C1 [Example 149] | 2 mg/L (≈ 3.88 µM) | 4 mg/L (≈ 7.76 µM) | 8 mg/L (≈ 15.5 µM) | 1 mg/L (≈ 1.94 µM) | 8 mg/L (≈ 15.5 µM)
